Experimental findings from patent publication US6083944A, “Quinoline-containing α-ketoamide cysteine and serine protease inhibitors” (Cephalon, Inc., priority 1998, dated 2000) are described below.

Holding throughout (type): biochemical
The target in test [1] is T1, cathepsin B (Homo sapiens, UniProt P07858).
T1 construct: purchased Calbiochem 219364
Nature of the test: Inhibition of cathepsin B (Cbz-Phe-Arg-AMC hydrolysis). The conditions noted are these: Table 6; pH 6.0; read-out: Cath. B IC50. As for the experimental part:
(§1) To evaluate inhibitory activity, stock solutions (40 times concentrated) of each compound to be tested were prepared in 100% anhydrous DMSO and 5 μl of each inhibitor preparation was aliquoted into each of three wells of a 96-well plate. Recombinant human calpain I, prepared by the method of Meyer et al. (Biochem. J. 1996, 314: 511-519), was diluted into assay buffer (i.e., 50 mM Tris, 50 mM NaCl, 1 mM EDTA, 1 mM EGTA, and 5 mM β-mercaptoethanol, pH 7.5, including 0.2 mM Succ-Leu-Tyr-MNA), and 175 μl was aliquoted into the same wells containing the independent inhibitor stocks as well as to positive control wells containing 5 μl DMSO, but no compound. To start the reaction, 20 μl of 50 mM CaCl2 in assay buffer was added to all wells of the plate, excepting three, which were used as background signal baseline controls. Substrate hydrolysis was monitored every 5 minutes for a total of 30 minutes. Substrate hydrolysis in the absence of inhibitor was linear for up to 15 minutes.
(§2) Inhibition of calpain I activity was calculated as the percent decrease in the rate of substrate hydrolysis in the presence of inhibitor relative to the rate in its absence. Comparison between the inhibited and control rates was made within the linear range for substrate hydrolysis. The IC50 S of inhibitors (concentration yielding 50% inhibition) were determined from the percent decrease in rates of substrate hydrolysis in the presence of five to seven different concentrations of the test compound. The results were plotted as percent inhibition versus log inhibitor concentration, and the IC50 was calculated by fitting the data to the four-parameter logistic equation shown below using the program GraphPad Prism (GraphPad Software, Inc., San Diego, Calif.).
Additionally, the order of reagents added to the plate was altered because the enzyme is consitutively active. Following inhibitor addition to the plates, appropriate 2× concentrated stock dilutions of the enzyme preparations were made in assay buffer and 100 μl added to each well. The assay was initiated by addition of 100 μl of 2× concentrated stock dilution of substrate in assay buffer. Substrate hydrolysis was monitored using a Fluoriskan II (ex=390 nm; em=460 nm).

The target in test [2] is T2, α-chymotrypsin (Bos taurus, UniProt P00766).
T2 construct: purchased Sigma Chem. Co. C-3142
Kind of test: Inhibition of serine protease α-chymotrypsin (Succ-Ala-Ala-Pro-Phe-AMC hydrolysis). To be noted: Table 6; pH 7.5. As for the experimental part:
as §1, §2
Additionally, because α-chymotrypsin is not a calcium sensitive enzyme and is constitutively active, following addition of inhibitor stocks to the 96 well plates, 100 μl of a 2-fold concentrated stock of enzyme in dilution buffer was first added and the reaction was started by addition of 100 μl of a 2-fold concentrated stock of substrate in assay buffer. Substrate hydrolysis was monitored every 5 minutes up to 30 minutes using a Fluoroskan II (ex=390 nm em=460 nm).

For test [3], the target named is T3, Recombinant human calpain I (Homo sapiens, UniProt P07384).
T3 construct: made in house
T3 sequence (P07384 1-714): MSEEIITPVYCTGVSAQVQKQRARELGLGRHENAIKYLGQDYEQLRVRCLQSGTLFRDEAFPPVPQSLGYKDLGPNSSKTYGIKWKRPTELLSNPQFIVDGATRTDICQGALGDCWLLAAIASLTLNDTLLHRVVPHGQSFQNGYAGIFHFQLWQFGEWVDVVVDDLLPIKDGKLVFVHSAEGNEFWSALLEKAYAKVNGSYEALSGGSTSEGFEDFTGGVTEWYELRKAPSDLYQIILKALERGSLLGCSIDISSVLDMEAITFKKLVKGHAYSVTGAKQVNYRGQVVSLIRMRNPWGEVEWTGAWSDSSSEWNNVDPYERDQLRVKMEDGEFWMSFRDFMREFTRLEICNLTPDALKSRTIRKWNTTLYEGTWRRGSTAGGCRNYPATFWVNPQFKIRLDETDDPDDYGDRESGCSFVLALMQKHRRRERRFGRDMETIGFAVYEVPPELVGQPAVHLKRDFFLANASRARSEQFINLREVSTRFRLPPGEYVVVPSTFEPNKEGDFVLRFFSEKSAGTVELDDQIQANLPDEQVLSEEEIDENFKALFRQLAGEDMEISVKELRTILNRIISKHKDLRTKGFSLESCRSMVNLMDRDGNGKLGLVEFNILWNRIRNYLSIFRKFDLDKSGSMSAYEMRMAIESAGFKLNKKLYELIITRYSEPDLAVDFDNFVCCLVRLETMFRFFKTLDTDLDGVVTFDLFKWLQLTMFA
Nature of the test: Inhibition of calpain I (Succ-Leu-Tyr-MNA hydrolysis). The conditions noted are these: Tables 2-4; pH 7.5. As for the experimental part: as §1, §2
The parameters a, b, c, and d are defined as follows: a is % inhibition in the absence of inhibitor, b is the slope, c is the IC50, and d is the % inhibition at an infinite concentration of inhibitor.

Regarding `O=C(NCCNS(=O)(=O)c1ccc([N+](=O)[O-])cc1)C(=O)C(Cc1ccccc1)NC(=O)c1cc(C#Cc2ccccc2)nc2ccccc12` (single isomer, unassigned) [Example 84], the IC50 in test [1] stood at 348 nM; in test [2] it was 14 nM.
Regarding `CCONC(=O)C(=O)C(Cc1ccccc1)NC(=O)c1cc(C#Cc2ccccc2)nc2ccccc12` (stereo not shown) [Example 103], the IC50 was determined as 65 nM in test [3], 435 nM in test [1] and 380 nM in test [2].
Turning to `O=C(NCCNS(=O)(=O)c1ccccc1)C(=O)[C@H](Cc1ccccc1)NC(=O)c1cc(C#Cc2ccccc2)nc2ccccc12` [Example 96], the figures for the IC50 in test [3], in test [1] and in test [2] were 29 nM, 375 nM and 66 nM, respectively.
For the molecule `O=C(NCCNS(=O)(=O)c1ccc(-c2ccccn2)s1)C(=O)C(Cc1ccccc1)NC(=O)c1cc(C#Cc2ccccc2)nc2ccccc12` (stereo not shown) [Example 86], the IC50 in test [1] is 1030 nM; in test [2], 475 nM.
Consider `O=C(NOCc1ccccc1)C(=O)C(Cc1ccccc1)NC(=O)c1cc(C#Cc2ccccc2)nc2ccccc12` (stereo not shown) [Example 104], for which the 50% inhibitory concentration (IC50) came out at 60 nM in test [3], 330 nM in test [1] and 1160 nM in test [2].
The like results for `O=C(NCCCNS(=O)(=O)c1ccccc1)C(=O)C(Cc1ccccc1)NC(=O)c1cc(C#Cc2ccccc2)nc2ccccc12` (stereo not shown) [Example 100] were, in that order, 55 nM, 360 nM and 36 nM.

A word on the IC50: it is the point on the concentration scale where inhibition reaches its midpoint.
